For 58 compounds, Inhibition percent results are on record in publication PMC9995496, “A screen for MeCP2-TBL1 interaction inhibitors using a luminescence-based assay” (Scientific Reports, 2023).

For one test, the target named is T1, MeCP2-TBL1 interaction (MeCP2-SmBiT / TBL1-LgBiT) (Mus musculus, UniProt Q9QXE7).
T1 construct: expressed in transfected cells; crude lysate used as a cell-free assay
T1 sequence (Q9QXE7 166-527): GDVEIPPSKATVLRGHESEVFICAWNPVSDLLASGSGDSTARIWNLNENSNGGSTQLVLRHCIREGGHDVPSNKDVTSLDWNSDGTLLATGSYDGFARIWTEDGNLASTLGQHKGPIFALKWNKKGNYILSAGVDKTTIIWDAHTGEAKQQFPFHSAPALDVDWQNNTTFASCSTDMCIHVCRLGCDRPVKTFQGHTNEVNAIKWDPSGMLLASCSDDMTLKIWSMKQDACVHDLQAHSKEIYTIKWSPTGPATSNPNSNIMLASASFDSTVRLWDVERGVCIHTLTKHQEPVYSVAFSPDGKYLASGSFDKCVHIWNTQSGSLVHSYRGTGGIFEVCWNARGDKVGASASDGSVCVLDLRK
Kind of test: MeCP2-TBL1 NanoLuc luciferase complementation assay (cell-free, extracts of transfected HEK293 cells).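 Note: each compound tested at 20 µM final concentration.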 The format is binding, human. To be noted: primary screen of Asinex library, single well per compound. In a few lines:
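Cell-free split NanoLuc: lysate of HEK293 cells co-expressing the MeCP2 C-terminal half-SmBiT and TBL1 WD domain-LgBiT, mixed 1:1 with furimazine. After 30 min at room temperature, luminescence was plate-median normalized.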
As for `Cc1cc(Oc2ccccc2F)nc(C2CCCCN2C(=O)c2ccnc(-c3cncnc3)c2)n1` (stereo not shown) [BDH_32366371], the Inhibition percent is given as 0.18. The same measure, in the same setting: then `Cc1cccc(Cc2cccc(C3CCCN(C(=O)c4ccnc(-c5cncnc5)c4)C3)n2)c1` (stereo not shown) [BDH_32367369], with -1.96.

Consider `CC(C)(NC(=O)Cc1cccc(F)c1)C(=O)N1CCCC2(CC1)CN(c1ccccc1)C(=O)O2` (stereo not shown) [BDH_32367867], for which the Inhibition percent is reported as 2.91. The same measure, in the same setting: the same measure for `CC(=O)N1CCC(Cc2ccc(F)cc2)(C(=O)N2CCCC(Cc3cccc(C)n3)C2)CC1` (stereo not shown) [BDH_32369388]: -2.67; for `O=C(c1cccc(Oc2ncccn2)c1)N1CCCC2(CC1)CN(c1cccc(F)c1)C(=O)O2` (stereo not shown) [BDH_32369515]: -4.84. Same read-out and setting: then `COc1ccccc1Oc1cccc(C2CCN(C(=O)c3ccc(-c4cncnc4)nc3)CC2)n1` [BDH_32370065], with -2.43; and `CNC(=O)C1CN(C(=O)C2(C)CCN(C(=O)c3ccccc3)CC2)CCN1Cc1ccccc1` (stereo not shown) [BDH_32370904], with -3.09. Still for that read-out and setting: the same measure for `Cc1ccc(C(=O)N2C[C@@H](c3ccc(F)cc3)[C@@]3(CCCC(=O)N3)C2)cc1NCc1ccccn1` [BDH_32371225]: -3.76; for `CN1C(=O)C2(CCN(C(=O)c3cccc(Nc4ncccn4)c3)CC2)CC1Cc1ccc(F)cc1` (stereo not shown) [BDH_32371589]: 8.79.

Consider `O=C1COC2(CCCN(C(=O)c3ccccc3Cn3ccnc3)CC2)CN1CCc1ccccc1` (stereo not shown) [BDH_32371928], for which the Inhibition percent is recorded as -2.75. Consider `Cc1nccn1Cc1ccccc1C(=O)N1C[C@@H](c2cccc(F)c2)[C@@]2(CCCCC(=O)N2)C1` [BDH_32372714], for which the Inhibition percent is -2.77. Same read-out and setting: then `COCC(=O)N1CCC(C)(C(=O)N2CCCC2c2ccnc(-c3cccc(Cl)c3)n2)CC1` (stereo not shown) [BDH_32373816], with 0.44; and `O=C(c1ccccc1Cn1ccnc1)N1CCOCC2(C1)CN(c1ccc(Cl)cc1)C(=O)O2` (stereo not shown) [BDH_32374184], with 1.12; and `O=C(COc1ncnc2ccccc12)N1CCC[C@@]2(C[C@@H](Oc3ccc(F)c(Cl)c3)CO2)C1` [BDH_33516387], with 6.08. The same measure, in the same setting: the same measure for `Cc1c[nH]c(-c2nccnc2CC2CCCN(C(=O)c3ccnc(Cc4cccc(F)c4)c3)C2)n1` (stereo not shown) [BDH_33521378]: -5.26.

Staying with this test, now noted: primary screen of the Asinex library, sheet "Sargen output Asinex library", one well per compound.
As to `Cc1cc(CC2CCN(C(=O)C3(C)CCN(C(=O)Cc4cccc(F)c4)CC3)CC2)ccn1` [BDH_32366782], the Inhibition percent came to 4.29%.

In the case of `CC(=O)N[C@@]12CN(C)CC[C@@H]1[C@@H](c1ccccc1)N(C(=O)c1cccc(Oc3ncccn3)c1)C2` [BDH_32367667], the Inhibition percent is -3.64%.

Take `Cc1cc(Oc2ccc(F)cc2)nc(C2CCN(C(=O)c3cncc(-c4cncnc4)c3)CC2)n1` [BDH_32369058]: the Inhibition percent is on record as -2.06%.

Take `Cc1cc(Oc2ccccc2F)nc(C2CCN(C(=O)c3cncc(-c4cncnc4)c3)CC2)n1` [BDH_32370406]: the Inhibition percent was 0.98%. Same read-out and setting: the same measure for `Cc1nccn1Cc1cccc(C(=O)N2[C@H](Cc3ccccc3)C[C@]3(C)NC(=O)CCC[C@H]23)c1` [BDH_32370660]: -3.96%; for `O=C1OC2(CCCN(C(=O)c3ccnc(N4CCOCC4)c3)CC2)CN1CCc1ccccc1` (stereo not shown) [BDH_32370969]: -1.73%; for `CNC(=O)c1cc(C)nc(C2(C)CCN(C(=O)c3ccc(C)c(NCc4ccccn4)c3)CC2)n1` [BDH_32371078]: 4.95%. The same measure, in the same setting: the same measure for `COc1ccc(C(=O)N2CCCC(Cc3cn4ccnc4cn3)CC2)cc1OCc1ccccn1` (stereo not shown) [BDH_32371251]: 1.17%.

As to `O=C(c1ccccc1CN1CCOCC1)N1CCOCC(Cc2ccc3ccncc3c2)C1` (stereo not shown) [BDH_32372076], the Inhibition percent is on record as -4.00%. Still for that read-out and setting: then `COc1ccc(C2(C(=O)N3CCC4(CC3)CC(Oc3ccccc3F)CO4)CCOCC2)cc1` (stereo not shown) [BDH_32372513], with -1.24%. Still for that read-out and setting: then `O=C1CCCN1CCOc1ccccc1C(=O)N1CCCC(Cc2cn3ccnc3cn2)CC1` (stereo not shown) [BDH_32372856], with -2.49%; and `CNC(=O)c1cccc(C2CN(C(=O)c3ccc(OCc4ccccn4)c(OC)c3)CCN2C)c1` (stereo not shown) [BDH_32373002], with 4.71%.

In the case of `Cn1cc(-c2cc(C(=O)N3CCCC(c4cccc(-c5cccc(C(N)=O)c5)n4)C3)ccn2)cn1` (stereo not shown) [BDH_32374050], the Inhibition percent is given as -6.35%. Regarding `Cn1ccc(C(=O)Nc2ccccc2C(=O)N2CCC3(CN(Cc4ccccc4)C(=O)O3)C2)n1` (stereo not shown) [BDH_32374198], the Inhibition percent was -4.02%.

As to `COCC(=O)N1CCC(C)(C(=O)N2CCC[C@]3(C[C@@H](Oc4cccc(F)c4)CO3)C2)CC1` [BDH_32375031], the Inhibition percent was -4.50%. The same measure, in the same setting: the same measure for `C[C@@]12C[C@H]3[C@H](Cc4ccccc4)N[C@@H]1CCCC[C@@H]2N3C(=O)c1ccnc(Cc2ccccc2)c1` [BDH_33392602]: 3.55%.

Take `COc1cccc(-c2cc(C(=O)N3CCC[C@@]4(C[C@@H](Oc5cccc(Cl)c5)CO4)C3)[nH]n2)c1` [BDH_33516566]: the Inhibition percent was found to be 6.38%. The same measure, in the same setting: the same measure for `O=C(c1cc(-c2cccc(F)c2)no1)N1CCC[C@@]2(C[C@@H](Oc3ccccc3F)CO2)C1` [BDH_33517958]: 4.74%; for `COc1ccc([C@H]2CN(C)[C@@H]3CCN(C(=O)c4ccnc(Cc5ccccc5OC)c4)C[C@H]23)cc1` [BDH_33520255]: -0.37%.

With `COc1ccccc1Cc1ccc(C(=O)N2CCCC2c2cncc(-c3nc(C)c[nH]3)n2)cn1` (stereo not shown) [BDH_33521296], the Inhibition percent is -4.74%. The same measure, in the same setting: then `COc1ccccc1Cc1ccc(C(=O)N2CCCC2c2cccc(-c3cncn3C)n2)cn1` (stereo not shown) [BDH_33521317], with -1.25%. With `Cc1c[nH]c(-c2cncc(C3CCCN(C(=O)c4ccnc(Cc5cccc(F)c5)c4)C3)n2)n1` (stereo not shown) [BDH_33521385], the Inhibition percent is on record as -2.90%. On to `NC(=O)c1cc(CC2CCCN(C(=O)c3ccnc(Cc4ccccc4)c3)CC2)ncn1` (stereo not shown) [BDH_33521416], for which the Inhibition percent was -0.17%.

The test is the same for the next values; noted with them: primary screen of the Asinex library, sheet "Sargen output Asinex library", one well per compound, Batch Ref. 1.
With `COc1cccc(Nc2ncccc2C(=O)N2CCOCC(Cc3nccn4cccc34)C2)c1` (stereo not shown) [BDH_32366009], the Inhibition percent is listed as -5.94%. Still for that read-out and setting: the same measure for `Cn1cc(-c2cc(C(=O)N3CCC(c4cncc(-c5cccc(Cl)c5)n4)CC3)ccn2)cn1` [BDH_32366963]: 1.59%. For `O=C1CCCN1CCOc1cccc(C(=O)N2C3CCC2CC(Cc2cnc4[nH]ccc4c2)C3)c1` (stereo not shown) [BDH_32367285], the Inhibition percent is listed as -0.20%. Same read-out and setting: then `Cc1ccc(C2(C(=O)N3CCC(CC(=O)Nc4ccc5nccnc5c4)CC3)CCOCC2)cc1` [BDH_32368328], with -1.52%; and `Cc1cc(Oc2ccccc2F)nc(C2CCN(C(=O)c3cccc(-c4cncnc4)n3)CC2)n1` [BDH_32368986], with 1.94%; and `CC1(C(=O)N2CCOCC(Cc3ccc4ncccc4c3)C2)CCN(C(=O)c2ccccc2)CC1` (stereo not shown) [BDH_32372082], with 0.77%. Still for that read-out and setting: the same measure for `CN1C(=O)C2(CCN(C(=O)C3(c4ccccc4)CCOCC3)CC2)CC1Cc1ccccc1` (stereo not shown) [BDH_32374590]: 0.40%; for `C[C@]12C[C@@H](Cc3ccccc3)N(C(=O)c3cccc(CN4CCCC4=O)c3)[C@H]1CCCC(=O)N2` [BDH_32374892]: -1.59%. On the same count and under the same terms, the same measure for `CC(C)CN1C(=O)C2(CCN(C(=O)Cn3cccnc3=O)CC2)CC1Cc1ccc(F)cc1` (stereo not shown) [BDH_33517008]: -0.88%; for `COc1ccccc1Cc1ccc(C(=O)N2CCCC2c2cncc(-c3nccn3C)n2)cn1` (stereo not shown) [BDH_33521295]: -3.44%; for `COc1ccccc1Cc1ccc(C(=O)N2CCC(c3cccc(-c4cncn4C)n3)CC2)cn1` [BDH_33521315]: 0.21%. As for `CNC(=O)c1cnn2c(C3CCCN(C(=O)c4ccnc(Cc5cccc(F)c5)c4)C3)ccnc12` (stereo not shown) [BDH_33521351], the Inhibition percent was -0.09%. Still for that read-out and setting: then `Cn1ccnc1-c1nccnc1C1CCN(C(=O)c2ccnc(Cc3cccc(F)c3)c2)CC1` [BDH_33521386], with -2.61%. Still for that read-out and setting: then `NC(=O)c1cnn2c(C3CCCCN3C(=O)c3ccnc(Cc4ccccc4)c3)ccnc12` (stereo not shown) [BDH_33521422], with -0.87%. In the case of `CNC(=O)c1cnn2c(C3CCCCN3C(=O)c3ccnc(Cc4ccccc4F)c3)ccnc12` (stereo not shown) [BDH_33521663], the Inhibition percent is -0.23%. The same measure, in the same setting: then `O=C(c1ccnc(Cc2ccccc2F)c1)N1CCC(Cc2nccnc2-c2ncc[nH]2)CC1` [BDH_33521693], with 0.97%; and `Cc1c[nH]c(-c2cncc(CC3CCN(C(=O)c4ccc(Cc5ccccc5F)nc4)CC3)n2)n1` [BDH_33521764], with 0.73%; and `COc1ccccc1Cc1cc(C(=O)N2CCCC2c2cncc(-c3nc(C)c[nH]3)n2)ccn1` (stereo not shown) [BDH_33522145], with 0.17%. As for `COc1ccccc1Cc1cc(C(=O)N2CCC(c3nccnc3-c3nc(C)c[nH]3)CC2)ccn1` [BDH_33522161], the Inhibition percent came to 6.35%. Still for that read-out and setting: then `COc1cccc(N2CCC(O)(CN3C[C@@H](c4cccc(F)c4)[C@@]4(CCCC(=O)N4)C3)CC2)c1` [BDH_33611042], with 2.32%.
